Assay results as given in paper PMC4774972, “Activity and Predicted Nephrotoxicity of Synthetic Antibiotics Based on Polymyxin B” (Journal of Medicinal Chemistry, 2016).
In brackets after ≈: the same amount, converted by molar mass. Numbered stars: 1 amine (or outer) side, 2 acyl side, 3 side chain; on linkers, the order of the positions; unused ones are H or OH. Bridge positions count the residues as written; N and C are the ends. Square brackets hold non-standard residues; d marks the D form. Peptide text beside a SMILES is read from it. * marks the point of attachment. Octanoyl(6-Me) = CCC(C)CCCCC(=O)*; NH(2-ClPh) = Clc1ccccc1N*; Octanoyl = CCCCCCCC(=O)*; Dab = NCC[C@H](N)C(=O)O; CO = O=C([*:1])[*:2]

Legend:
[1] = test system: S. aureus ATCC 25923, MSSA; details: MIC S. aureus ATCC 25923, MSSA (µg/mL)
[2] = test system: K. pneumoniae CI 138-16357-20362, PmxR; details: MIC K. pneumoniae CI 138-16357-20362, PmxR (µg/mL)
[3] = test system: K. pneumoniae ATTC BAA-2146, NDM-1 pos; details: MIC K. pneumoniae ATTC BAA-2146, NDM-1 pos (µg/mL)
[4] = test system: A. baumannii CI Ptyela 100734512:2, PmxR; details: MIC A. baumannii CI Ptyela 100734512:2, PmxR (µg/mL)
[5] = test system: P. aeruginosa FADDI-PA070, PmxR; details: MIC P. aeruginosa FADDI-PA070, PmxR (µg/mL)
E. coli ATCC 25922 = details: MIC E. coli ATCC 25922 (µg/mL)
A. baumannii ATCC 19606 = details: MIC A. baumannii ATCC 19606 (µg/mL)
[6] = test system: K. pneumoniae CI Koprana 100650661:1, PmxR; details: MIC K. pneumoniae CI Koprana 100650661:1, PmxR (µg/mL)
K. pneumoniae ATCC 13883 = details: MIC K. pneumoniae ATCC 13883 (µg/mL)
[7] = test system: K. pneumoniae ATCC 700603, MDR; details: MIC K. pneumoniae ATCC 700603, MDR(µg/mL)
[8] = test system: P. aeruginosa PA9704, PmxR; details: MIC P. aeruginosa PA9704, PmxR (µg/mL)
P. aeruginosa ATCC 27853 = details: MIC P. aeruginosa ATCC 27853 (µg/mL)
HepG2 = details: CC50 HepG2 (µM)
[9] = test system: P. aeruginosa FADDI-PA070, PmxR; format: cell-based, Pseudomonas aeruginosa; details: polymyxin resistant clinical isolate; MHB, 5 × 10^5 CFU/mL, 18 h at 37 °C
Experimental: (§1) Bacteria were either obtained from American Type Culture Collection (ATCC; Manassas, VA, USA) or independent academic clinical isolate collections, as listed in Table S2. Bacteria were cultured in nutrient broth (NB; Bacto Laboratories, catalog no. 234000) or Muller Hinton broth (MHB; Bacto Laboratories, catalog no. 211443) at 37 °C overnight with shaking (∼180 rpm). A sample of each culture was then diluted 50-fold in fresh MHB and incubated at 37 °C for 1.5–3 h with shaking (∼180 rpm). Compound stock solutions were prepared as 0.64 or 2.56 mg/mL in water. The compounds, at twice the final desired concentration, were serially diluted 2-fold across the wells of 96-well plates (Polystyrene, Corning, catalogue No. 3370). Mid log phase bacterial cultures (after 1.5–3 h incubation) were diluted to a final concentration of 5 × 10^5 colony forming units (CFU)/mL, and 50 μL was added to each well giving a final compound concentration range of 32 μg/mL to 0.015 μg/mL (128–0.06 μg/mL for colistin and polymyxin B against the polymyxin resistant clinical isolates). MICs were determined visually after 18 h of incubation at 37 °C, with the MIC defined as the lowest compound concentration at which no bacterial growth was visible.
(§2) Table S2. Bacterial strains used for Minimum Inhibitory Concentration (MIC) […]
(§3) Organism Strain Strain description Strain Source
(§4) Escherichia coli ATCC 25922 FDA strain Seattle 1946 ATCC
(§5) Klebsiella pneumoniae ATCC 13883 Control strain ATCC
(§6) Klebsiella pneumoniae ATCC 700603 Multi-drug resistant ATCC
(§7) Klebsiella pneumoniae BAA-2146 Metallo-beta-lactamase- ATCC
(§8) Acinetobacter baumannii ATCC 19606 Type strain ATCC
(§9) Pseudomonas aeruginosa ATCC 27853 Type strain ATCC
(§10) Pseudomonas aeruginosa FADDI-PA070 Clinical isolate, Nation and Li labs, polymyxin resistant Monash University
(§11) Clinical isolate, Wang Hengzhuang, Pseudomonas aeruginosa PA9704 polymyxin resistant University Hospital of […]
(§12) Ptyela Clinical isolate, Ilias Karaiskos and Acinetobacter baumannii Carbapenem & Helen Giamarellou
(§13) Clinical isolate, Medicine, Hygeia
(§14) Klebsiella pneumoniae Koprana Carbapenem, & General Hospital, […]
(§15) Clinical isolate, (Instituto Dante […]
(§16) polymyxin resistant Cardiologia, São […]

HepG2 cells = assay: Cytotoxicity assay (resazurin assay); format: cell-based, human; details: 4000 cells/well, 24 h incubation with compound, fluorescence 560/590
Experimental: Cytotoxicity to HEK293 and HepG2 cells was determined using the resazurin assay.[67],[68] […] Compounds were then added into each well. After 24 h incubation, 5 μM resazurin was added per well and incubated at 37 °C for 2 h. Fluorescence intensity was then read using a Polarstar Omega with excitation/emission 560/590. The data were then analyzed using GraphPad Prism 6 software. CC50 values were determined using GraphPad Prism 6 software (Inc. La Jolla, CA).

[10] = test system: S. aureus ATCC 25923, MSSA; assay: microbe, parasite or virus in culture; format: cell-based, Staphylococcus aureus; details: MHB, 5 × 10^5 CFU/mL, read visually after 18 h at 37 °C
Experimental: as §1, §2, §3, §4, §5, §6, §7, §8, §9, §10, §11, §12, §13, §14, §15, §16

[11] = test system: K. pneumoniae CI 138-16357-20362, PmxR; assay: microbe, parasite or virus in culture; format: cell-based, Klebsiella pneumoniae; details: carbapenem & polymyxin resistant clinical isolate; MHB, 5 × 10^5 CFU/mL, 18 h at 37 °C
[12] = test system: K. pneumoniae CI Koprana 100650661:1, PmxR; assay: microbe, parasite or virus in culture; format: cell-based, Klebsiella pneumoniae; details: carbapenem & polymyxin resistant clinical isolate; MHB, 5 × 10^5 CFU/mL, 18 h at 37 °C
[13] = test system: A. baumannii CI Ptyela 100734512:2, PmxR; assay: microbe, parasite or virus in culture; format: cell-based, Acinetobacter baumannii; details: carbapenem & polymyxin resistant clinical isolate; MHB, 5 × 10^5 CFU/mL, 18 h at 37 °C
Experimental: as §1, §2, §3, §4, §5, §6, §7, §8, §9, §10, §11, §12, §13, §14, §15, §16

[14] = test system: P. aeruginosa PA9704, PmxR; format: cell-based, Pseudomonas aeruginosa; details: polymyxin resistant clinical isolate; MHB, 5 × 10^5 CFU/mL, 18 h at 37 °C
Experimental: as §1, §2, §3, §4, §5, §6, §7, §8, §9, §10, §11, §12, §13, §14, §15, §16

Row | SMILES | MIC [1] [mg/L] | MIC [2] [mg/L] | MIC [3] [mg/L] | MIC [4] [mg/L] | MIC [5] [mg/L] | MIC (E. coli ATCC 25922) [mg/L] | MIC (A. baumannii ATCC 19606) [mg/L] | MIC [6] [mg/L] | MIC (K. pneumoniae ATCC 13883) [mg/L] | MIC [7] [mg/L] | MIC [8] [mg/L] | MIC (P. aeruginosa ATCC 27853) [mg/L] | CC50 (HepG2) [µM] | MIC P. aeruginosa FADDI-PA070, PmxR [9] [mg/L] | HepG2 - CC50 (HepG2 cells) [µM] | MIC S. aureus ATCC 25923, MSSA [10] [mg/L] | MIC K. pneumoniae CI 138-16357-20362, PmxR [11] [mg/L] | MIC K. pneumoniae CI Koprana 100650661:1, PmxR [12] [mg/L] | MIC A. baumannii CI Ptyela 100734512:2, PmxR [13] [mg/L] | MIC P. aeruginosa PA9704, PmxR [14] [mg/L]
1 | CCC(C)CCCCC(=O)N[C@@H](CCN)C(=O)N[C@H](C(=O)N[C@@H](CCN)C(=O)N[C@H]1CCNC(=O)[C@H]([C@@H](C)O)NC(=O)[C@H](CCN)NC(=O)[C@H](CCN)NC(=O)[C@H](CC(C)C)NC(=O)[C@@H](Cc2ccccc2)NC(=O)[C@H](CCN)NC1=O)[C@@H](C)O (stereo partly shown) | > 64 | 64 (≈ 53.2 µM) | 0.25 (≈ 0.208 µM) | 64 (≈ 53.2 µM) | 32 (≈ 26.6 µM) | 1 (≈ 0.831 µM) | 0.25 (≈ 0.208 µM) | 64 (≈ 53.2 µM) | 1 (≈ 0.831 µM) | 0.5 (≈ 0.415 µM) | 128 (≈ 106 µM) | 0.5 (≈ 0.415 µM) | > 300 | – | – | – | – | – | – | –
2 | CCC(C)CCCCC(=O)N[C@@H](CCN)C(=O)N[C@H](C(=O)N[C@@H](CCN)C(=O)N[C@H]1CCNC(=O)[C@H]([C@@H](C)O)NC(=O)[C@H](CCN)NC(=O)[C@H](CCN)NC(=O)[C@H](CC(C)C)NC(=O)[C@@H](CC(C)C)NC(=O)[C@H](CCN)NC1=O)[C@@H](C)O (stereo partly drawn) ({Octanoyl(6-Me)}-[Dab]T[Dab][Dab][Dab][dL]L[Dab][Dab]T; lactam 4-C) | > 128 | 64 (≈ 54.7 µM) | 0.25 (≈ 0.214 µM) | > 64 | > 32 | 0.25 (≈ 0.214 µM) | 0.25 (≈ 0.214 µM) | > 128 | 0.25 (≈ 0.214 µM) | 0.25 (≈ 0.214 µM) | 128 (≈ 109 µM) | 0.5 (≈ 0.428 µM) | > 300 | – | – | – | – | – | – | –
3 | CCCCCCCC(=O)N[C@@H](CCN)C(=O)N[C@H](C(=O)N[C@@H](CCN)C(=O)N[C@H]1CCNC(=O)[C@H]([C@@H](C)O)NC(=O)[C@H](CCN)NC(=O)[C@H](CCN)NC(=O)[C@H](CC(C)C)NC(=O)[C@@H](Cc2ccccc2)NC(=O)[C@H](CCN)NC1=O)[C@@H](C)O [Compound 11, polymyxin B3] (Octanoyl-[Dab]T[Dab][Dab][Dab][dF]L[Dab][Dab]T; lactam 4-C) | > 128 | > 128 | – | > 64 | > 32 | – | – | > 128 | – | – | > 128 | – | > 300 | >32 | >300 | >128 | >128 | >128 | >64 | –
4 | CC(C)C[C@@H]1NC(=O)[C@@H](Cc2ccccc2)NC(=O)[C@H](CCN)NC(=O)[C@@H](NC(=O)[C@H](CCN)NC(=O)[C@@H](NC(=O)[C@H](CCN)NC(=O)Nc2ccccc2Cl)[C@@H](C)O)CCNC(=O)[C@H]([C@@H](C)O)NC(=O)[C@H](CCN)NC(=O)[C@H](CCN)NC1=O [Compound 13] ({NH(2-ClPh)-CO}-[Dab]T[Dab][Dab][Dab][dF]L[Dab][Dab]T; lactam 4-C) | > 32 | > 32 | – | > 32 | > 32 | – | – | > 32 | – | – | > 32 | – | > 300 | – | >300 | >32 | >32 | >32 | >32 | >32
